According to patent publication US9751885B2, “Cyclopropanamine compound and use thereof” (Takeda Pharmaceutical Company Limited, priority 2012, dated 2017):
Where a name gives a salt, the structure may show the parent alone. Read-outs that look alike come from different tables or passages of the source.

What was measured:
MAO-B enzyme = MAO-B enzyme (Homo sapiens (Human), UniProt P27338); assay: Measurement of MAO-B inhibitory activity (MAO-Glo Assay); details: read-out: MAO-B IC50 value;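 also: luminescence read-out, compound preincubated 10 min with enzyme then reacted 60 min at room temperature, inhibition relative to enzyme reaction without compound, blank lacking enzyme and compound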
Chain of MAO-B enzyme (P27338 whole entry): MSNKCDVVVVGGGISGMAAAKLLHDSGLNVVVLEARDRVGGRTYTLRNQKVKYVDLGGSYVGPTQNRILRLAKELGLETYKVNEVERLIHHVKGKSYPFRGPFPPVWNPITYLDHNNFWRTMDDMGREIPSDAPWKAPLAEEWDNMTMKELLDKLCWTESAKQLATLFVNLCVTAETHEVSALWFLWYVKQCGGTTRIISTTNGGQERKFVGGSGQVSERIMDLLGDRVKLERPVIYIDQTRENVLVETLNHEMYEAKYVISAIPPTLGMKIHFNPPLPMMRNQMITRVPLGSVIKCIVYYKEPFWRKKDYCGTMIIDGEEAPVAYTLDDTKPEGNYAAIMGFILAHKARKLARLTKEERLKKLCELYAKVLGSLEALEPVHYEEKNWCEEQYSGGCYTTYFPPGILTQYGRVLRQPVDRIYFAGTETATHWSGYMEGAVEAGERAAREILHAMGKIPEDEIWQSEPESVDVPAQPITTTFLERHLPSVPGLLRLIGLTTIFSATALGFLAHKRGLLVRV

human LSD1(172-833) = human LSD1(172-833) (Homo sapiens (Human), UniProt O60341); assay: Measurement of LSD1 inhibitory activity (time-resolved fluorescence, biotin-histone H3 mono methylated K4 peptide); format: biochemical
In short: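 Remaining signal detected by TR-FRET after 60 min with europium anti-histone H3 antibody and streptavidin-XL665 in potassium fluoride/0.1% BSA.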

MAO-A enzyme = MAO-A enzyme (Homo sapiens (Human), UniProt P21397); assay: Measurement of MAO-A inhibitory activity (MAO-Glo Assay); format: biochemical
Chain of MAO-A enzyme (P21397 whole entry): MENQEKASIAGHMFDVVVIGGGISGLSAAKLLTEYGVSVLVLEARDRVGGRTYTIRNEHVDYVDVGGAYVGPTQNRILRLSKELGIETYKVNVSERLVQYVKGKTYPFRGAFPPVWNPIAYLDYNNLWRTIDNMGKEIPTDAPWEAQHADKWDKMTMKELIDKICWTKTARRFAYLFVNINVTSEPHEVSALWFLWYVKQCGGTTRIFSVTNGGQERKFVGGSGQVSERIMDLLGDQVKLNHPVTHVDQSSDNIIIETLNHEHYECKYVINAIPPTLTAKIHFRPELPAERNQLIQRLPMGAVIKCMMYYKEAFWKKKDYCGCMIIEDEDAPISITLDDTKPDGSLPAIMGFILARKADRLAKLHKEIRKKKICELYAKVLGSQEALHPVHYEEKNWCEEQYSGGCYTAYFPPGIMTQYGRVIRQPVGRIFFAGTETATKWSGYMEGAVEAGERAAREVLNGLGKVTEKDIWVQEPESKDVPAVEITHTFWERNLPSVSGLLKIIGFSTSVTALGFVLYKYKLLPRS

[1] = test system: white blood cell number, red blood cell number, platelet number; assay: Evaluation of blood cell number in mouse; format: in vivo; details: oral, Day 2 after administration
Procedure: Evaluation of Blood Cell Number in Mouse
(§1) Male ICR mice (hereinafter mice) were acclimated for at least one week in a rearing facility. The mice were raised in a rearing room with controlled temperature and humidity under a 12:12 hour light-dark cycle, and allowed free ingestion of feed and water.
The compounds were suspended in 0.5% methylcellulose/0.02% citric acid/distilled water and orally administered. All compounds were administered to the mice at a dose of 1 mg/kg, 10 mg/kg, 50 mg/kg or 100 mg/kg (body weight). On Day 2 after the administration of the compound, the whole blood was collected.
Using Sysmex XT-1800i (Sysmex Corporation), the white blood cell number, red blood cell number, and platelet number in the collected whole blood per unit volume were measured. The influence of each compound on each blood cell number was determined by comparing the number with the mean of each blood cell number of the mouse without administration of the compound (control group), and the numerical value of each blood cell number of a mouse with the administration of the compound is shown in percentage. percentage (%) of blood cell number of compound administration group as compared to control group=(mean blood cell number of compound administration group mean blood cell number of compound non-administration group)×100

[2] = Evaluation of hippocampal distribution in mouse; format: in vivo; details: male ICR mice, 10 mg/kg oral; for concentration at 0.5 h: 0.5 hr after administration
Procedure: Evaluation of Hippocampal Distribution in Mouse
as §1
The compounds were suspended in 0.5% methylcellulose/0.02% citric acid/distilled water and orally administered. All compounds were administered to the mice at a dose of 10 mg/kg (body weight).
Blood samples were collected at 0.5 hr, or 1 hr, or 1.5 hr from compound administration, and the hippocampus was isolated simultaneously. The plasma concentration and hippocampus concentration of each test compound were measured by the LC/MS/MS method, the ratio (hippocampus/plasma concentration ratio) was calculated, and distribution into hippocampus was evaluated.

[3] = hippocampus, read-out: hippocampus concentration (mean)
[4] = plasma, read-out: plasma concentration (mean)
[5] = hippocampus, 1 hr after administration, read-out: hippocampus concentration (mean)
[6] = plasma, 1 hr after administration, read-out: plasma concentration (mean)

Cc1ncc(NC(=O)c2cccc([C@@H]3C[C@H]3NCC3CC3)c2)s1 (relative stereo) [Example 79, 3-(trans-2-((cyclopropylmethyl)amino)cyclopropyl)-N-(2-methyl-1,3-thiazol-5-yl)benzamide dihydrochloride]
IC50 (MAO-B enzyme): > 10 µM | IC50 (human LSD1(172-833)): < 0.1 µM | IC50 (MAO-A enzyme): > 10 µM | platelet number, percentage of compound administration group compared to control group, mean ([1]; 10 mg/kg): 92.4% | red blood cell number, percentage of compound administration group compared to control group, mean ([1]; 10 mg/kg): 101.1% | white blood cell number, percentage of compound administration group compared to control group, mean ([1]; 10 mg/kg): 122.4% | platelet number, percentage of compound administration group compared to control group, mean ([1]; 100 mg/kg): 92.8% | red blood cell number, percentage of compound administration group compared to control group, mean ([1]; 100 mg/kg): 101.6% | white blood cell number, percentage of compound administration group compared to control group, mean ([1]; 100 mg/kg): 96.3% | concentration at 0.5 h [2, 3]: 569 ng/g | concentration at 0.5 h [2, 4]: 759 ng/mL

O=C(Nc1ccc(N2CCCC2=O)cc1)c1cccc([C@@H]2C[C@H]2NCC2CC2)c1 (relative stereo) [Example 82, 3-(trans-2-((cyclopropylmethyl)amino)cyclopropyl)-N-(4-(2-oxopyrrolidin-1-yl)phenyl)benzamide hydrochloride]
IC50 (MAO-B enzyme): > 10 µM | IC50 (human LSD1(172-833)): < 0.1 µM | IC50 (MAO-A enzyme): > 10 µM | platelet number, percentage of compound administration group compared to control group, mean ([1]; 10 mg/kg): 104.6% | red blood cell number, percentage of compound administration group compared to control group, mean ([1]; 10 mg/kg): 100.5% | white blood cell number, percentage of compound administration group compared to control group, mean ([1]; 10 mg/kg): 81.2% | platelet number, percentage of compound administration group compared to control group, mean ([1]; 100 mg/kg): 94.6% | red blood cell number, percentage of compound administration group compared to control group, mean ([1]; 100 mg/kg): 99.9% | white blood cell number, percentage of compound administration group compared to control group, mean ([1]; 100 mg/kg): 135.5% | concentration at 0.5 h [2, 3]: 58 ng/g | concentration at 0.5 h [2, 4]: 5610 ng/mL

O=C(Nc1cnn(CC2CC2)c1)c1cccc([C@@H]2C[C@H]2NCC2CCOCC2)c1 (relative stereo) [Example 87, N-(1-(cyclopropylmethyl)-1H-pyrazol-4-yl)-3-(trans-2-((tetrahydro-2H-pyran-4-ylmethyl)amino)cyclopropyl)benzamide dihydrochloride]
IC50 (MAO-B enzyme): > 10 µM | IC50 (human LSD1(172-833)): < 0.1 µM | IC50 (MAO-A enzyme): > 10 µM | platelet number, percentage of compound administration group compared to control group, mean ([1]; 10 mg/kg): 111.7% | red blood cell number, percentage of compound administration group compared to control group, mean ([1]; 10 mg/kg): 96.8% | white blood cell number, percentage of compound administration group compared to control group, mean ([1]; 10 mg/kg): 94.6% | platelet number, percentage of compound administration group compared to control group, mean ([1]; 100 mg/kg): 105.2% | red blood cell number, percentage of compound administration group compared to control group, mean ([1]; 100 mg/kg): 100.7% | white blood cell number, percentage of compound administration group compared to control group, mean ([1]; 100 mg/kg): 101.1% | concentration at 1 h [2, 5]: 43 ng/g | concentration at 1 h [2, 6]: 251 ng/mL

CN1CCC(N[C@@H]2C[C@H]2c2cccc(C(=O)Nc3cnn(CC4CC4)c3)c2)CC1 (relative stereo) [Example 202, N-(1-(cyclopropylmethyl)-1H-pyrazol-4-yl)-3-(trans-2-((1-methylpiperidin-4-yl)amino)cyclopropyl)benzamide trihydrochloride]
IC50 (MAO-B enzyme): > 10 µM | IC50 (human LSD1(172-833)): < 0.1 µM | IC50 (MAO-A enzyme): > 10 µM

O=C(Nc1cnn(CC2CC2)c1)c1cccc([C@@H]2C[C@H]2NC2CCC(F)(F)CC2)c1 (relative stereo) [Example 204, N-(1-(cyclopropylmethyl)-1H-pyrazol-4-yl)-3-(trans-2-((4,4-difluorocyclohexyl)amino)cyclopropyl)benzamide dihydrochloride]
IC50 (MAO-B enzyme): > 10 µM | IC50 (human LSD1(172-833)): < 0.1 µM | IC50 (MAO-A enzyme): > 10 µM

O=C(NC1CCC(F)(F)CC1)c1cccc([C@@H]2C[C@H]2NC2CCN(C3CC3)CC2)c1 (relative stereo) [Example 208, 3-(trans-2-((1-cyclopropylpiperidin-4-yl)amino)cyclopropyl)-N-(4,4-difluorocyclohexyl)benzamide dihydrochloride]
IC50 (MAO-B enzyme): > 10 µM | IC50 (human LSD1(172-833)): < 0.1 µM | IC50 (MAO-A enzyme): > 10 µM

Cc1ncc(NC(=O)c2cccc([C@@H]3C[C@H]3NC3CCC3)c2)s1 (relative stereo) [Example 210, 3-(trans-2-(cyclobutylamino)cyclopropyl)-N-(2-methyl-1,3-thiazol-5-yl)benzamide dihydrochloride]
IC50 (MAO-B enzyme): > 10 µM | IC50 (human LSD1(172-833)): < 0.1 µM | IC50 (MAO-A enzyme): > 10 µM

Cc1ncc(NC(=O)c2cccc([C@@H]3C[C@H]3NC3CCC(F)(F)CC3)c2)s1 (relative stereo) [Example 211, 3-(trans-2-((4,4-difluorocyclohexyl)amino)cyclopropyl)-N-(2-methyl-1,3-thiazol-5-yl)benzamide dihydrochloride]
IC50 (MAO-B enzyme): > 10 µM | IC50 (human LSD1(172-833)): < 0.1 µM | IC50 (MAO-A enzyme): > 10 µM

Cc1cc(NC(=O)c2cccc([C@@H]3C[C@H]3NC3CCC(F)(F)CC3)c2)on1 (relative stereo) [Example 216, 3-(trans-2-((4,4-difluorocyclohexyl)amino)cyclopropyl)-N-(3-methyl-1,2-oxazol-5-yl)benzamide hydrochloride]
IC50 (MAO-B enzyme): > 10 µM | IC50 (human LSD1(172-833)): < 0.1 µM | IC50 (MAO-A enzyme): > 10 µM

O=C(Nc1cnn(Cc2ccc(F)cc2)c1)c1cccc([C@@H]2C[C@H]2NC2CCOCC2)c1 (relative stereo) [Example 217, N-(1-(4-fluorobenzyl)-1H-pyrazol-4-yl)-3-(trans-2-(tetrahydro-2H-pyran-4-ylamino)cyclopropyl)benzamide dihydrochloride]
IC50 (MAO-B enzyme): > 10 µM | IC50 (human LSD1(172-833)): < 0.1 µM | IC50 (MAO-A enzyme): > 10 µM

CC(=O)N1CCC(N[C@@H]2C[C@H]2c2cccc(C(=O)Nc3cnn(Cc4ccc(F)cc4)c3)c2)CC1 (relative stereo) [Example 218, 3-(trans-2-((1-acetylpiperidin-4-yl)amino)cyclopropyl)-N-(1-(4-fluorobenzyl)-1H-pyrazol-4-yl)benzamide dihydrochloride]
IC50 (MAO-B enzyme): > 10 µM | IC50 (human LSD1(172-833)): < 0.1 µM | IC50 (MAO-A enzyme): > 10 µM

Cc1cc(NC(=O)c2cccc([C@@H]3C[C@H]3NCC3CCOCC3)c2)no1 (relative stereo) [Example 231, N-(5-methyl-1,2-oxazol-3-yl)-3-(trans-2-((tetrahydro-2H-pyran-4-ylmethyl)amino)cyclopropyl)benzamide]
IC50 (MAO-B enzyme): > 10 µM | IC50 (human LSD1(172-833)): < 0.1 µM | IC50 (MAO-A enzyme): > 10 µM | platelet number, percentage of compound administration group compared to control group, mean ([1]; 10 mg/kg): 93.7% | red blood cell number, percentage of compound administration group compared to control group, mean ([1]; 10 mg/kg): 99.7% | white blood cell number, percentage of compound administration group compared to control group, mean ([1]; 10 mg/kg): 75.7% | platelet number, percentage of compound administration group compared to control group, mean ([1]; 100 mg/kg): 90.4% | red blood cell number, percentage of compound administration group compared to control group, mean ([1]; 100 mg/kg): 95.0% | white blood cell number, percentage of compound administration group compared to control group, mean ([1]; 100 mg/kg): 77.1% | concentration at 1 h [2, 5]: 527 ng/g | Kp at 1 h ([2]; hippocampus/plasma, 1 hr after administration, read-out: hippocampus/plasma concentration ratio (mean)): 4.5 | concentration at 1 h [2, 6]: 117 ng/mL

Cn1cc(NC(=O)c2ccc(F)c([C@@H]3C[C@H]3NCC3CC3)c2)cn1 (relative stereo) [Example 237, 3-(trans-2-((cyclopropylmethyl)amino)cyclopropyl)-4-fluoro-N-(1-methyl-1H-pyrazol-4-yl)benzamide dihydrochloride]
IC50 (MAO-B enzyme): > 10 µM | IC50 (human LSD1(172-833)): < 0.1 µM | IC50 (MAO-A enzyme): > 10 µM | platelet number, percentage of compound administration group compared to control group, mean ([1]; 10 mg/kg): 90.3% | red blood cell number, percentage of compound administration group compared to control group, mean ([1]; 10 mg/kg): 98.8% | white blood cell number, percentage of compound administration group compared to control group, mean ([1]; 10 mg/kg): 83.9% | platelet number, percentage of compound administration group compared to control group, mean ([1]; 100 mg/kg): 91.9% | red blood cell number, percentage of compound administration group compared to control group, mean ([1]; 100 mg/kg): 96.5% | white blood cell number, percentage of compound administration group compared to control group, mean ([1]; 100 mg/kg): 86.7% | concentration at 0.5 h [2, 3]: 237 ng/g | concentration at 0.5 h [2, 4]: 523 ng/mL

O=C(NCC(c1ccccc1)N1CCOCC1)c1ccc(C2CC2NCC2CC2)cc1 (stereo not drawn) [Example 24, 4-(trans-2-((cyclopropylmethyl)amino)cyclopropyl)-N-(2-(morpholin-4-yl)-2-phenylethyl)benzamide bis(trifluoroacetate)]
IC50 (MAO-B enzyme): > 10 µM | IC50 (human LSD1(172-833)): < 0.1 µM | IC50 (MAO-A enzyme): > 10 µM
